Source: patent US20210267978A1, “NANOPARTICLE FORMULATIONS OF IKE AND METHODS OF USE THEREOF” (The Trustees of Columbia University in the City of New York, priority 2018, published 2021)

Key:
Experiment in all cases: DLBCL cell line sensitivity to IKE (CellTiter-Glo viability, 24 h)
Assay type in all cases: cell-based
A3/KAW = settings: read-out: cell line sensitivity to IKE (IC50 class)
Protocol: (§1) DLBCL cells were plated at 10,000 cells per well in white 384-well plates (32 μL per well) in technical duplicates and incubated overnight. The cells were then treated with 8 μL medium containing a two-fold dilution series of vehicle (DMSO), IKE (starting from 100 μM) with or without Fer-1 (starting from 200 μM). After 24 h incubation, 40 μL of 50% CellTiter-Glo (Promega) 50% cell culture medium was added to each well and incubated at room temperature with shaking for 15 min. Luminescence was measured using a Victor X5 plate reader (PerkinElmer). All cell viability data were normalized to the DMSO vehicle condition. Experiments were performed three independent times with different passages for each cell line.

U937 = settings: Homo sapiens, U-937; U937, 24 hours; read-out: cell line sensitivity to IKE (IC50 class)
Protocol: as §1

RIVA = tested on: RIVA
Protocol: as §1

SUDHL 16 = settings: Homo sapiens, SU-DHL-16; SUDHL 16, 24 hours; read-out: cell line sensitivity to IKE (IC50 class)
Protocol: as §1

WSU-NHL = tested on: WSU-NHL
Protocol: as §1

SUDHL 8 = settings: SUDHL 8, 24 hours
Protocol: as §1

LY 8 = settings: LY 8, 24 hours; read-out: cell line sensitivity to IKE (IC50 class)
Protocol: as §1

DOHH 2 = settings: Homo sapiens; DOHH 2, 24 hours; read-out: cell line sensitivity to IKE (IC50 class)
Protocol: as §1

U2932 = settings: Homo sapiens; U2932, 24 hours; read-out: cell line sensitivity to IKE (IC50 class)
Protocol: as §1

SUDHL 9 = settings: SUDHL 9, 24 hours
Protocol: as §1

HBL 1 = settings: HBL 1, 24 hours
Protocol: as §1

LY 7 = settings: LY7; LY 7, 24 hours; read-out: cell line sensitivity to IKE (IC50 class)
Protocol: as §1

SUDHL 2 = settings: Homo sapiens, SU-DHL-2; SUDHL 2, 24 hours; read-out: cell line sensitivity to IKE (IC50 class)
Protocol: as §1

SUDHL 10 = settings: Homo sapiens, SU-DHL10; SUDHL 10, 24 hours; read-out: cell line sensitivity to IKE (IC50 class)
Protocol: as §1

KARPAS 422 = settings: KARPAS 422, 24 hours
Protocol: as §1

SUDHL 7 = settings: SUDHL 7, 24 hours; read-out: cell line sensitivity to IKE (IC50 class)
Protocol: as §1

SUDHL 5 = settings: Homo sapiens, SU-DHL-5; SUDHL 5, 24 hours; read-out: cell line sensitivity to IKE (IC50 class)
Protocol: as §1

SUDHL 6 = settings: Homo sapiens, SU-DHL-6; SUDHL 6, 24 hours; read-out: cell line sensitivity to IKE (IC50 class)
Protocol: as §1

IC50 (U937): > 10000 nM
IC50 (SUDHL 16): < 100 nM
cell line sensitivity to IKE (IC50 class) (SUDHL 8): moderately resistant
cell line sensitivity to IKE (IC50 class) (SUDHL 9): moderately resistant
IC50 (SUDHL 2): < 100 nM
IC50 (SUDHL 10): < 100 nM
cell line sensitivity to IKE (IC50 class) (KARPAS 422): moderately resistant
IC50 (SUDHL 7): > 10000 nM
IC50 (SUDHL 5): < 100 nM
IC50 (SUDHL 6): < 100 nM
SMILES: CC(C)Oc1ccc(C(=O)Cn2ccnc2)cc1-n1c(CN2CCN(C(=O)COc3ccc(Cl)cc3)CC2)nc2ccccc2c1=O [IKE, Imidazole ketone erastin]
IC50 (A3/KAW): > 10000 nM
cell line sensitivity to IKE (IC50 class) (RIVA): moderately resistant
cell line sensitivity to IKE (IC50 class) (WSU-NHL): moderately resistant
IC50 (LY 8): < 100 nM
IC50 (DOHH 2): < 100 nM
IC50 (U2932): > 10000 nM
cell line sensitivity to IKE (IC50 class) (HBL 1): moderately resistant
IC50 (LY 7): > 10000 nM
